Each block holds one molecule with its values, some of them ahead of it.
How the values were obtained:
[1] = system: C57BL6 mice fed with the NASH diet; test: Oral treatment in established NASH mouse model; format: in vivo; conditions: oral 10 mg/kg/day, 6 weeks
Method: This study defined the protective properties of branched FA-AA conjugates and the enhanced potency of 11U3-2M conjugated to Leucine (Leu) when administered orally in an established NASH mouse model. C57BL6 mice were fed with the NASH diet for 16 weeks and then orally administered with vehicle (n=10), C18:1-Leu (n=10), C18:1-2M-Leu (n=8) and 11U3-2M-Leu (n=12) (10 mg/kg/day) for 6 weeks while on the NASH diet. Mice were sacrificed and organs were collected for further analysis.

[2] = Cassette PK of branched vs straight-chain FA-AA (NAA) conjugates, oral or intraperitoneal; format: in vivo, mice; conditions: 30 mg/kg; for levels in liver, rank among the groups / levels in plasma, rank among the groups: both intraperitoneal and oral administration
Method: A library of branched fatty acid-amino acid (FA-AA) conjugates was synthesized, exemplified in the table above. […] The absorption of the selected straight chain vs. branched FA-AA conjugates was compared in a cassette PK study as described below in more detail. A mixture of all the FA-AA conjugates (with or without branching) was concomitantly administered orally to mice (n=4-5, 30 mg/kg each compound). […] The absorption improvement resulting from the branching of the fatty acids was ubiquitous across all the FA-AA conjugates independent of the choice of amino acids. In contrast, all tested FA-AA conjugated dosed intraperitoneally (n=4-5, 30 mg/kg each compound) reached significant levels in circulation, bypassing the first-pass metabolism.
Two cassette PK experiments were performed to compare the pharmacokinetics of dimethyl acyl amino acids (acyl-2M-amino acids) with their natural, non-branched analogs and evaluate the increased half-life, oral bioavailability, and liver concentrations obtained by the invention (introduction of the dimethyl (2M) branching).
Groups of mice (n=4 per time point per group) were used. The compounds were delivered using a cassette pharmacokinetic design by oral gavage or by intraperitoneal injections at a dose of 30 mg/kg. Groups are detailed in table 1. To note, the methyl ester of C18:0-2M-Gly was abbreviated as C18:0-2M-Gly-Me.
The following groups were used, and the time points were 0, 1, 2, and 4 h for intraperitoneal administration and 0, 2, and 4 h for oral administration.

[3] = system: mice with established NASH; conditions: intraperitoneal administration; cited from earlier work

Compound: CCCc1ccc(CCCCCCCCCC(C)(C)C(=O)NC(CC(C)C)C(=O)O)o1 (stereo not shown) [11U3-2M-Leu]
cholesterol levels [1]: significantly decreased
expression of genes regulating lipogenesis in liver [1]: suppressed
expression of key genes regulating fatty acid oxidation (PPARα signaling pathway) in liver [1]: significantly induced
fibrosis and cell death genes (e.g., collagens and TGF-b) in liver [1]: anti-fibrotic actions
inflammatory effect in the NASH animals (FIG. 23) [1]: anti-inflammatory
liver weight in comparison to vehicle control [1]: significant decrease
liver/body weight ratio in comparison to vehicle control [1]: significant decrease
plasma alanine transaminase (ALT) [1]: significantly decreased
plasma aspartate transaminase (AST) [1]: significantly decreased
plasma concentration over time (resistance to metabolism) vs 11U3-Leu ([2]; mice): maintained over a longer period
levels in liver, rank among the groups [2]: highest levels
levels in plasma, rank among the groups [2]: highest levels
AUC0-4 vs all the straight-chain analogs ([2]; intraperitoneal): significantly higher
Cmax vs all the straight-chain analogs ([2]; intraperitoneal): significantly higher
metabolism vs all the straight-chain analogs ([2]; intraperitoneal): slower metabolism

levels in liver, rank among the groups [2]: highest levels
levels in plasma, rank among the groups [2]: highest levels
Compound: CCCc1ccc(CCCCCCCCCC(C)(C)C(=O)NCC(=O)O)o1 [11U3-2M-Gly, (2,2-Dimethyl-11-(5-propylfuran-2-yl)undecanoyl)glycine]

Compound: CCCCCCCCC=CCCCCCCC(C)(C)C(=O)N[C@@H](CC(C)C)C(=O)O [C18:1-2M-Leu, (2,2-dimethyloctadec-9-enoyl)leucine]
expression of genes regulating lipogenesis in liver [1]: suppressed
fibrosis and cell death genes (e.g., collagens and TGF-b) in liver [1]: anti-fibrotic actions
plasma alanine transaminase (ALT) [1]: significantly decreased
plasma aspartate transaminase (AST) [1]: significantly decreased

Compound: CCCCCCCC/C=C\CCCCCCCC(=O)N[C@@H](CC(C)C)C(=O)O [C18:1-Leu, N-oleoyl leucine]
steatosis, inflammation and fibrosis in mice with established NASH [3]: improved steatosis, and lowered inflammation and fibrosis
